The subject of data set [1] is Crytococcus Neoformans 13690. The format is cell-based, Cryptococcus neoformans. As for the experimental part:
In additional experiments, a fluorescence-activated cell sorter (FACS) based assay was developed to test the fungicidal activity of the peptides. […] Difco) agar. Several colonies were picked from the agar plate and inoculated into 5 mL of Sabouraud's Dextrose media in a sterile 10 mL polypropylene tube. The fungal cultures were incubated for about 18 hours at 30° C. […] The culture were centrifuged at 3000 rpm for 5 minutes (Sorvall RT 6000B). After centrifugation, the supernatant was decanted leaving the fungal pellets in the centrifuge tubes. The pellets were resuspended in 15 mL of SDB. Both suspensions were combined into one tube and mixed to generate a stock culture. […] After determining the concentration of the stock, appropriate dilutions were made with Sabouraud's Dextrose media to obtain 100 mL of 1×10^6 cell/mL. […] After the 1 hour incubation, all the tubes were centrifuged at 3000 rpm for 5 minutes. […] Louis, Mo.) in Dulbecco's PBS (DPBS, GIBCO, Grand Island, N.Y.) except the autofluorescence control, which was resuspended in DPBS alone. […] The settings were adjusted appropriately to the following approximate parameters: Cells were analyzed (10,000 cells/tube) and their respective fluorescence determined. […] The population of dead (i.e., propidium iodide stained) fungal cells was determined by a fluorescence threshold between the negative control and positive control.

The test system of data set [2] is endotoxin (E. coli O111:B4). Nature of the data set: Mouse experimental endotoxemia model. The format is in vivo. The following applies: endotoxin 20 mg/kg, 7 days. As for the experimental part: Domain III derived peptides are also tested for LPS neutralizing efficacy in an in vivo mouse experimental endotoxemia model. […] This was followed by a second intravenous injection of the peptide to be tested. Injections of saline were used in negative control mice. […] The efficacy of the peptides was measured by a decrease in endotoxemia-associated mortality in peptide-injected mice as compared with control mice. […] No animals survived in the saline control group.

The format of data set [3] is physicochemical. As for the experimental part:
XMP.284 was soluble in water and unbuffered saline. XMP.284 was also soluble in 10 mM sodium phosphate, 150 mM sodium chloride pH 7. […] There was very little product loss, as measured by absorbance at 280 nm, in 0.15 M saline buffered with 10 mM acetate at pH 4, 5 or 6. […] Presently preferred is a formulation that includes 10 mM sodium acetate, 150 mM sodium chloride, pH 5.

Data set [4] deals with C. albicans designated CA-1, Strain SLU-1. The following applies: designated CA-1, Strain SLU-1, 18 h. The procedure:
In each broth assay screening procedure, a colony of C. albicans designated CA-1, Strain SLU-1 that was received from the laboratories of G. Matuschak and A. Lechner, St. Louis University Hospital, St. Louis, Mo., where the strain was maintained, was inoculated into a tube containing 5 mL Sabouraud Dextrose broth (2% dextrose, 1% neopeptone) and incubated overnight at 37° C. with shaking. The overnight culture was diluted 1:50 into 5 mL of fresh broth and incubated for 3 hours at 37° C. Organisms were pelleted by centrifugation in a Beckman J-6M centrifuge for 5 minutes at 3000 rpm (1500×g) and the pellets were resuspended in 5 mL phosphate buffered saline (PBS) and the optical density at 570 nm was determined. On the basis of the determination that one OD unit equals 3×10^7 colony forming units/mL, yeast cells were diluted to 2×10^6 cells/mL in Sabouraud Dextrose broth.
Domain III peptides derived from or based on BPI to be screened were originally constituted in Dulbecco's-PBS, were diluted to 100 μg/mL in broth and were serially diluted 2-fold into wells of a 96 well sterile, flat bottom, non-pyrogenic tissue culture plate (Costar, Cambridge, Mass.). All assays were performed in triplicate. 2×10^5 organisms were added at 100 μl per well; final volume was 200 μL/well; the plate was incubated on a shaker at 37° C. for 18 hours; and the optical densities for each well were read at 590 nm. […] The broth assay data may be set out in terms of minimum inhibitory concentration (MIC), i.e. the lowest concentration required to reduce the optical density at 590 nm to below 0.1.

The test system of data set [5] is polyene-resistant (ATCC 38247), 5-fluorocytosine-resistant (ATCC 44373), azole-resistant (ATCC 62342), ketoconazole-resistant (ATCC 64124) C. albicans. Nature of the data set: Fungicidal activity on commercially-available drug-resistant Candida strains. The format is cell-based, Candida albicans. As to conditions: ATCC 38247, 44373, 62342, 64124. As for the experimental part:
Further experiments were performed to determine the anti-fungal activity of Domain III derived peptides on commercially-available strains of Candida considered resistant to other anti-fungal agents: polyene-resistant C. albicans (ATCC Accession No. 38247), 5-fluorocytosine-resistant C. albicans (ATCC No. 44373), azole-resistant C. albicans (ATCC No. 62342), and ketoconazole-resistant C. albicans (ATCC No. 64124).

For data set [6], the system named is Candida albicans SLU-1 strain. Nature of the data set: Serum stability, anti-fungal activity after serum incubation by radial diffusion bioassay. Format: in vitro ADME, rat or human serum. Summed up:
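Peptide at 1 mg/mL mixed with an equal volume of rat or human serum and held at 37° C. Samples taken at 0, 1, 2 and 4 h, extracted on C-18 solid phase, then analysed by HPLC, N-terminal sequencing and ESI/MS. Recovered peptides tested against C. albicans SLU-1 by radial diffusion.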

As to H-SKVKWLIQLFHKK-NH2 [XMP.284], the “Activity of Peptides on Crytococcus Neoformans 13690, IC50” value in data set [1] was determined as 0.11 µg/mL. For the same substance, the “protection from endotoxemia-associated mortality” value in data set [2] (0.5 mg/kg dose i.v., FIG. 9) is listed as “significant protection”. Also, the animals protected in data set [2] (1 mg/kg dose i.v.) is given as 14 of 15. In data set [3], the “solubility in the phosphate buffer on heating” value is “remained soluble”; the “solubility in water and unbuffered saline” value was “soluble”.

As for H-KSKVGWLIQLFHKK-NH2 [XMP.13], the “minimum inhibitory concentration (MIC), lowest concentration required to reduce the optical density at 590 nm to below 0.1” value in data set [4] was 12.5 µg/mL. In data set [5], the “Fungicidal activity on resistant strains” value was “not reduced”. Further, the “Activity in Serum t ½ (hr.)” value in data set [6] is recorded as “indefinite”.

For the origin of these results see patent US6664231B1, “Anti-fungal peptides” (priority 1993, dated 2003).
